Data reported in PubChem BioAssay AID248 (DTP/NCI, 2004).
Values joined by “and” are separate entries in the source; they are usually repeats but may differ in a detail not shown here. Equal values may be shown once. Toxic doses and inconclusive results are not listed. Rule as the data show it: active = T/C of 150% or more; inactive = T/C below 125%.

Tested on: L1210 leukemia ip in BDF1 mice, survival T/C
Experiment: NCI In Vivo Anticancer Drug Screen. Data for tumor model L1210 Leukemia (intraperitoneal) in B6D2F1 (BDF1) mice
Conditions: endpoint: mean survival time, higher = longer survival
How it was run: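 Ratio derived from survival: compound-dosed mice over vehicle-dosed mice, all bearing a transplantable tumor.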

[1] = dose: 100.0 mg/kg/injection, schedule: Q01DX001 (ip), vehicle: saline
[2] = dose: 200.0 mg/kg/injection, schedule: Q01DX001 (ip), vehicle: saline
[3] = dose: 400.0 mg/kg/injection, schedule: Q01DX001 (ip), vehicle: saline
[4] = dose: 100.0 mg/kg/injection, schedule: Q04DX002 (ip), vehicle: saline
[5] = dose: 200.0 mg/kg/injection, schedule: Q04DX002 (ip), vehicle: saline
[6] = dose: 400.0 mg/kg/injection, schedule: Q04DX002 (ip), vehicle: saline
[7] = dose: 100.0 mg/kg/injection, schedule: Q04DX003 (ip), vehicle: Klucel (hydroxypropylcellulose) (HPC)
[8] = dose: 200.0 mg/kg/injection, schedule: Q04DX003 (ip), vehicle: Klucel (hydroxypropylcellulose) (HPC)
[9] = dose: 400.0 mg/kg/injection, schedule: Q04DX003 (ip), vehicle: Klucel (hydroxypropylcellulose) (HPC)
[10] = dose: 100.0 mg/kg/injection, schedule: Q04DX003 (ip), vehicle: saline with Tween-80
[11] = dose: 200.0 mg/kg/injection, schedule: Q04DX003 (ip), vehicle: saline with Tween-80
[12] = dose: 100.0 mg/kg/injection, schedule: Q01DX009 (ip), vehicle: Klucel (hydroxypropylcellulose) (HPC)
[13] = dose: 200.0 mg/kg/injection, schedule: Q01DX009 (ip), vehicle: Klucel (hydroxypropylcellulose) (HPC)
[14] = dose: 400.0 mg/kg/injection, schedule: Q01DX009 (ip), vehicle: Klucel (hydroxypropylcellulose) (HPC)

Measured: T/C

CCCC[N+](C)(C)CC[N+](C)(C)CCCC
inactive: [1] 102 % of control | [2] 105 % of control | [3] 102 % of control

CC(=O)OC1COC(SSC2OCC(OC(C)=O)C(OC(C)=O)C2OC(C)=O)C(OC(C)=O)C1OC(C)=O (stereo unspecified)
inactive: [1] 89 % of control | [2] 89 % of control | [3] 101 % of control

Cc1cccc(Nc2cc(Cl)nc(N)n2)c1
inactive: dose: 100.0 mg/kg/injection, schedule: Q01DX Z (ip), vehicle: methylcellulose (MC) 97 % of control | dose: 200.0 mg/kg/injection, schedule: Q01DX Z (ip), vehicle: methylcellulose (MC) 89 % of control

CCOC(=O)C(C)(C)CN(C)CC(C)(C)C=O
inactive: [4] 97 % of control | [5] 108 % of control | [6] 101 % of control

C#CCON(C(=O)Nc1ccc(Cl)cc1)C(=O)c1ccc(OC)cc1
inactive: [7] 88 % of control | [8] 86 % of control | [9] 93 % of control

CCCCCC1CCCC1
inactive: [4] 94 % of control | [5] 106 % of control | [6] 103 % of control

Nc1ccc(Cc2nc3ccccc3[nH]2)cc1
inactive: [1] 102 % of control | [2] 96 % of control | [3] 98 % of control

CCCCCCCCCCCCCCCCCC(S(=O)(=O)CC)S(=O)(=O)CC
inactive: [7] 93 % of control | [8] 93 % of control | [9] 90 % of control

O=C(Cc1ccccc1)OC1CC2CC1C1CCCC21 (stereo unspecified)
inactive: dose: 50.0 mg/kg/injection, schedule: Q01DX001 (ip), vehicle: carboxymethylcellulose (CMC) 96 % of control | dose: 100.0 mg/kg/injection, schedule: Q01DX001 (ip), vehicle: carboxymethylcellulose (CMC) 98 % of control | dose: 200.0 mg/kg/injection, schedule: Q01DX001 (ip), vehicle: carboxymethylcellulose (CMC) 104 % of control | dose: 400.0 mg/kg/injection, schedule: Q01DX001 (ip), vehicle: carboxymethylcellulose (CMC) 96 % of control

O=C1C=CC(=Nc2ccc(O)c3ncccc23)c2cccnc21
inactive: dose: 100.0 mg/kg/injection, schedule: Q01DX001 (ip), vehicle: other 104 % of control and 114 % of control | dose: 200.0 mg/kg/injection, schedule: Q01DX001 (ip), vehicle: other 106 % of control and 108 % of control | dose: 400.0 mg/kg/injection, schedule: Q01DX001 (ip), vehicle: other 102 % of control

CCN(CC)C(=O)Sc1ccc(SC(=O)N(CC)CC)cc1
inactive: dose: 12.5 mg/kg/injection, schedule: Q04DX002 (ip), vehicle: saline with Tween-80 90 % of control | dose: 25.0 mg/kg/injection, schedule: Q04DX002 (ip), vehicle: saline with Tween-80 97 % of control | dose: 50.0 mg/kg/injection, schedule: Q04DX002 (ip), vehicle: saline with Tween-80 93 % of control | [10] 107 % of control | [11] 102 % of control | dose: 400.0 mg/kg/injection, schedule: Q04DX003 (ip), vehicle: saline with Tween-80 97 % of control

CC(=O)OCCCCOC(C)=O
inactive: [1] 105 % of control | [2] 109 % of control | [3] 107 % of control

O=C(c1ccco1)C(O)c1ccco1 (stereo unspecified)
inactive: dose: 100.0 mg/kg/injection, schedule: Q04DX002 (ip), vehicle: Klucel (hydroxypropylcellulose) (HPC) 96 % of control | dose: 200.0 mg/kg/injection, schedule: Q04DX002 (ip), vehicle: Klucel (hydroxypropylcellulose) (HPC) 104 % of control

CCOC(=O)c1ccc(N=NN(C)C2CCCCC2)cc1
inactive: dose: 100.0 mg/kg/injection, schedule: Q01DX001 (sc), vehicle: olive oil, sesame oil, peanut oil 102 % of control | dose: 100.0 mg/kg/injection, schedule: Q01DX009 (sc), vehicle: olive oil, sesame oil, peanut oil 104 % of control | dose: 100.0 mg/kg/injection, schedule: Q04DX003 (sc), vehicle: olive oil, sesame oil, peanut oil 102 % of control | dose: 200.0 mg/kg/injection, schedule: Q01DX001 (sc), vehicle: olive oil, sesame oil, peanut oil 102 % of control | dose: 200.0 mg/kg/injection, schedule: Q01DX009 (sc), vehicle: olive oil, sesame oil, peanut oil 116 % of control | dose: 200.0 mg/kg/injection, schedule: Q04DX003 (sc), vehicle: olive oil, sesame oil, peanut oil 103 % of control | dose: 400.0 mg/kg/injection, schedule: Q01DX001 (sc), vehicle: olive oil, sesame oil, peanut oil 98 % of control | dose: 400.0 mg/kg/injection, schedule: Q01DX009 (sc), vehicle: olive oil, sesame oil, peanut oil 104 % of control | dose: 400.0 mg/kg/injection, schedule: Q04DX003 (sc), vehicle: olive oil, sesame oil, peanut oil 100 % of control

Nc1nc(N)c2nnsc2n1
inactive: dose: 100.0 mg/kg/injection, schedule: Q01DX001 (ip), vehicle: saline with Tween-80 101 % of control | dose: 200.0 mg/kg/injection, schedule: Q01DX001 (ip), vehicle: saline with Tween-80 96 % of control | dose: 400.0 mg/kg/injection, schedule: Q01DX001 (ip), vehicle: saline with Tween-80 90 % of control

CSc1ncc(C#N)c(N)n1
inactive: dose: 50.0 mg/kg/injection, schedule: Q01DX009 (ip), vehicle: saline with Tween-80 98 % of control | dose: 100.0 mg/kg/injection, schedule: Q01DX009 (ip), vehicle: saline with Tween-80 93 % of control | [10] 97 % of control | dose: 200.0 mg/kg/injection, schedule: Q01DX009 (ip), vehicle: saline with Tween-80 104 % of control | [11] 94 % of control

O=C(COCC(=O)N/N=C/c1ccc(Cl)cc1Cl)N/N=C\c1cc(Cl)cc(Cl)c1
inactive: [12] 93 % of control | [13] 88 % of control

CCCCN(CCCC)CP(=S)(CN(CCCC)CCCC)CN(CCCC)CCCC
inactive: [7] 104 % of control | [8] 104 % of control | [9] 107 % of control

N#Cc1ccc(-c2ccc(C#N)cc2Br)c(Br)c1
inactive: [12] 93 % of control | [7] 94 % of control | [13] 93 % of control | [8] 95 % of control | [14] 88 % of control | [9] 96 % of control

N=C(N)C1CCCCC1
inactive: [1] 95 % of control | [2] 97 % of control | [3] 100 % of control

O=C(Nc1cccc(C(F)(F)F)c1)N(Cc1ccccc1)c1ccccc1
inactive: [12] 109 % of control | [13] 95 % of control | [14] 96 % of control

NC(=O)NCO
inactive: dose: 100.0 mg/kg/injection, schedule: Q04DX002 (ip), vehicle: saline with Tween-80 94 % of control | dose: 200.0 mg/kg/injection, schedule: Q04DX002 (ip), vehicle: saline with Tween-80 94 % of control | dose: 400.0 mg/kg/injection, schedule: Q04DX002 (ip), vehicle: saline with Tween-80 90 % of control

C[C@@H]1CC[C@@]2(OC1)O[C@H]1C[C@H]3[C@@H]4CC=C5C(C)(C)C(=O)C(O)=C[C@]5(C)[C@H]4CC[C@]3(C)[C@H]1[C@@H]2C
inactive: dose: 100.0 mg/kg/injection, schedule: Q04DX003 (sc), vehicle: steriod suspending solution 98 % of control | dose: 200.0 mg/kg/injection, schedule: Q04DX003 (sc), vehicle: steriod suspending solution 110 % of control | dose: 400.0 mg/kg/injection, schedule: Q04DX003 (sc), vehicle: steriod suspending solution 98 % of control

S=C([S][Sn]([c]1ccccc1)([c]1ccccc1)[c]1ccccc1)N(c1ccccc1)c1ccccc1
inactive: dose: 100.0 mg/kg/injection, schedule: Q01DX001 (ip), vehicle: steriod suspending solution 89 % of control | dose: 200.0 mg/kg/injection, schedule: Q01DX001 (ip), vehicle: steriod suspending solution 98 % of control | dose: 400.0 mg/kg/injection, schedule: Q01DX001 (ip), vehicle: steriod suspending solution 104 % of control

O=C(COc1ccc(Cl)c(Cl)c1)NCCc1cc[n+](Cc2ccc(S(=O)(=O)F)cc2)cc1
inactive: [10] 102 % of control | [11] 86 % of control
